Source: patent US7517517B2 (Janssen Pharmaceutica N.V., priority 2002, dated 2009)

Key:
[1] = biological target: T1, mGlu1 receptor (Rattus norvegicus, UniProt P23385); assay: [3H]Compound A binding and autoradiography on rat brain sections; conditions: 10 μM (FIG. 10, panel C)
Method: Tissue preparation. Male Wistar rats (200 g) were sacrificed by decapitation. Brains were immediately removed from the skull and were rapidly frozen in dry-ice-cooled 2-methylbutane (−40° C.). Brains were then stored at −70° C. until sectioning. Twenty-micrometer-thick sagittal sections were cut using a Leica C3050 cryostat microtome (Leica Microsystems, Wetzlar, Germany) and thaw-mounted on SuperFrost Plus microscope slides (Menzle-glaser, Germany). The sections were then kept at −70° C. until use.
Receptor autoradiography. Sections were thawed and dried under a stream of cold air, preincubated (3×5 min) in 50 mM Tris-HCl, 1.2 mM MgCl2, 2 mM CaCl2, 0.1% BSA pH 7.4 at room temperature. […] After the incubation, the excess of radioligand was washed off (3×5 min) in ice-cold buffer containing 50 mM Tris-HCl, 1.2 mM MgCl2 and 2 mM CaCl2, followed by a rapid dip in cold distilled water. The sections were dried under a stream of cold air and then exposed to [^3H]Hyperfilm (Amersham, UK) for 6 weeks at room temperature. The films were developed manually in Kodak D19 and fixed with Kodak Readymatic. Some sections were exposed to a Fuji Imaging Plate for 2 days at room temperature and scanned using a Fujix Bass 2000 phosphoimager.

[2] = biological target: T1, mGlu1 receptor; assay: [3H]Compound A binding to rat brain membranes (cortex, hippocampus, striatum, cerebellum); conditions: 10 μM; 2.5 nM [3H]Compound A (FIG. 9)
Method: Tissue preparation. Male Wistar rats (˜200 g) were sacrificed by decapitation. The brains were rapidly removed and cortex, hippocampus, striatum and cerebellum were immediately dissected. The fresh tissue was homogenized with an Ultra Turrax in 20 volumes of 50 mM Tris-HCl, pH 7.4 and tissue was centrifuged at 23,500 g for 10 min. After homogenisation using a DUAL homogeniser, membranes were washed twice by centrifugation at 23,500 g for 10 min. The final pellet was suspended in 10 volumes of 50 mM Tris-HCl, pH 7.4 and frozen at −80° C.
In vitro binding assay. After thawing, membranes from rat cortex, cerebellum, striatum and hippocampus were rehomogenized using a DUAL and suspended in ice-cold binding buffer containing 50 mM Tris-HCl, 1.2 mM MgCl2, 2 mM CaCl2, pH 7.4. The binding assay was carried out in a total volume of 0.5 ml containing 2.5 nM [^3H]Compound A and a membrane aliquot corresponding to 40 μg for cerebellar membranes, 60 μg for hippocampal membranes, 80 μg for striatal membranes or 150 μg for cortical membranes. […] After incubation for 30 min at 4° C., the labelled membranes were washed and harvested by rapid vacuum filtration over Whatman GF/C glass-fibre filters using a 40-well filtration manifold and radioactivity collected on the filters was counted as above.
Data analysis was performed using the GraphPad Prism program (GraphPad Prism Software, Inc., San Diego, Calif.). Saturation binding experiments were analysed using a non-linear regression analysis. Inhibition curves were fitted using non-linear regression analysis fitting the one-site competition equation: Y=Bottom+((Top−Bottom)/1+10^X-LogIC50). Ki values were calculated using the Cheng-Prusoff equation: Ki=IC50/[1+([C]/KD)] where C is the concentration of radioligand and KD is the dissociation constant of the radioligand (Cheng and Prusoff, Biochem. Pharmacol. 22, 3099-3108, 1973). The observed on (kob) and off (koff) rate were calculated from association-dissociation curves using the one-phase-exponential association and decay equations in the Prism program, respectively. kon was calculated by subtracting koff from kob and dividing by the radioligand concentration. The two-tailed Student's t-test was used for statistical evaluation of the binding data: * p<0.05, ** p<0.01 and *** p<0.001. The Dunnett's t-test following a 2-way analysis of variance (with as factors compound concentration and experiment) were used to analyse the data from the IP experiments.

[3] = biological target: T2, rat mGlu1a receptor (Rattus norvegicus, UniProt P23385); assay: Intracellular Ca2+ response in rat mGlu1a receptor expressing CHO-dhfr− cells (FLIPR); assay type: cell-based; conditions: CHO-dhfr− cells expressing rat mGlu1a; glutamate 30 μM; read-out: IC50, inhibition of the glutamate-induced increase in [Ca2+]i
T2 construct: host or cells: CHO-dhfr- cells
T2 sequence (P23385 19-1199): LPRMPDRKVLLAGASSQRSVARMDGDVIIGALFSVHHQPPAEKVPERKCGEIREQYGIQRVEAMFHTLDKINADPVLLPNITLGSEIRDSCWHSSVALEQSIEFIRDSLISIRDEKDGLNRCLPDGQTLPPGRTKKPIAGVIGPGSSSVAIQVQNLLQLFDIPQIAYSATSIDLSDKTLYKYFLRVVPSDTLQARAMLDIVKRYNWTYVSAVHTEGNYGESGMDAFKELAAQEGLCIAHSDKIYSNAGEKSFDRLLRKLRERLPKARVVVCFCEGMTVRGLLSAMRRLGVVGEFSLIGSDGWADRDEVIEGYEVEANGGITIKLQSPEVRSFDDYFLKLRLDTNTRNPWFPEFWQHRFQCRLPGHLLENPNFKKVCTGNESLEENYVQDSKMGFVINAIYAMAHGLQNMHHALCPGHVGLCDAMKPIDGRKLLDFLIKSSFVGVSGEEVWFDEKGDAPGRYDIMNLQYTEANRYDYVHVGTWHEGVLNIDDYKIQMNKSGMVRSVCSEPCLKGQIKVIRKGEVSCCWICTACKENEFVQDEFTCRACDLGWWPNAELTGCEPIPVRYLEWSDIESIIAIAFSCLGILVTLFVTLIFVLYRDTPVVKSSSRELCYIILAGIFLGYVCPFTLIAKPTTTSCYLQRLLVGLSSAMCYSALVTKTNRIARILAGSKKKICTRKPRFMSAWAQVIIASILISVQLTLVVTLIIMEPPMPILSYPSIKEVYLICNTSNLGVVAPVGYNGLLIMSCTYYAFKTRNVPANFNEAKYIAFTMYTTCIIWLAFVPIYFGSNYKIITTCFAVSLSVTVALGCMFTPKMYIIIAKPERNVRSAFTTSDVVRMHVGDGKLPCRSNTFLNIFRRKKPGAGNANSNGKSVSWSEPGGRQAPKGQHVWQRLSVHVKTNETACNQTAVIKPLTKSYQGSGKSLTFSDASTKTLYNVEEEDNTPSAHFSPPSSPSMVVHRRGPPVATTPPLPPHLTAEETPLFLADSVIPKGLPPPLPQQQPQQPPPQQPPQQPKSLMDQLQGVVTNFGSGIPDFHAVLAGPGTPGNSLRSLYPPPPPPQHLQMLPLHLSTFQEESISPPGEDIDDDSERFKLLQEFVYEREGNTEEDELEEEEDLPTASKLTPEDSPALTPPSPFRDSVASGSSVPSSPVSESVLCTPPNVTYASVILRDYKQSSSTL

[4] = test system: mGlu1 receptor; conditions: literature; cited from earlier work
[5] = biological target: T2, rat mGlu1a receptor; assay: [3H]quisqualate binding to rat mGlu1a receptor CHO-dhfr− membranes (saturation, inhibition); conditions: rat mGlu1a receptor CHO-dhfr− membranes
[6] = biological target: T2, rat mGlu1a receptor; assay: [3H]Compound A binding to rat mGlu1a receptor CHO-dhfr− membranes (saturation, kinetics, inhibition)

- inhibition of [3H]Compound A binding to rat brain sections [1]: completely inhibited
- inhibition of [3H]Compound A binding to rat cerebellar membranes [2]: maximally inhibited
- IC50 [3]: 0.161 ± 0.038 µM
- Ki ([5]; inhibition of [3H]quisqualate binding, mean ± SD of 2 experiments): > 1000 µM
- effect on [3H]quisqualate binding (in words) [5]: did not affect
- Ki ([6]; 2.5 nM [3H]Compound A, 30 min at 4° C., mean ± SD of 3–4 experiments): 11.2 ± 0.93 nM
- Hill coefficient ([6]; inhibition of [3H]Compound A-binding, mean ± SD of 3–4 experiments): 0.95 ± 0.02
- inhibition of [3H]Compound A binding (in words) ([6]; rat mGlu1a receptor CHO-dhfr− membranes): nanomolar concentrations
SMILES: C=C1C[C@@H]2COC(=O)[C@]2(Cc2ccc3ccccc3c2)C1 [BAY 36-7620, reference compound]
- potency of mGlu1 receptor block [4]: 0.16 µM
